Source: PubChem BioAssay (NCI)
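How tested: cells in 96-well plates exposed to compound for 48 hours at five concentrations. At the TGI there is no net growth.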

Legend:
Test in all cases: NCI-60 cell line screen, 48 h
[1] = system: SF-295 CNS
[2] = system: NCI/ADR-RES ovarian
[3] = system: OVCAR-5 ovarian
[4] = system: HCT-15 colon
[5] = system: T-47D breast
[6] = system: HOP-62 NSCLC
[7] = system: PC-3 prostate
[8] = system: TK-10 renal
[9] = system: UO-31 renal
[10] = system: A498 renal
[11] = system: KM12 colon
[12] = system: NCI-H522 lung
[13] = system: SK-MEL-2 melanoma
[14] = system: MDA-MB-435
[15] = system: HL-60(TB) leukemia
[16] = system: MCF7 breast
[17] = system: NCI-H23 lung
[18] = system: UACC-257 melanoma
[19] = system: DU-145 prostate
[20] = system: HCC-2998 colon
[21] = system: SN12C renal
[22] = system: SK-MEL-5 melanoma
[23] = system: EKVX NSCLC
[24] = system: SK-OV-3 ovarian
[25] = system: NCI-H460 lung
[26] = system: M14 melanoma
[27] = system: MALME-3M melanoma
[28] = system: CCRF-CEM leukemia
[29] = system: HS 578T breast
[30] = system: SW-620 colon
[31] = system: SR leukemia
[32] = system: HCT-116 colon
[33] = system: NCI-H226 lung
[34] = system: HT29 colon
[35] = system: UACC-62 melanoma
[36] = system: SNB-75 CNS
[37] = system: MDA-MB-231 breast
[38] = system: SF-539 CNS
[39] = system: U251 CNS
[40] = system: MOLT-4 leukemia
[41] = system: OVCAR-3 ovarian
[42] = system: 786-0 renal
[43] = system: BT-549 breast
[44] = system: COLO 205 colon
[45] = system: OVCAR-4 ovarian
[46] = system: OVCAR-8 ovarian
[47] = system: RPMI-8226 leukemia
[48] = system: HOP-92 NSCLC
[49] = system: ACHN renal
[50] = system: RXF 393 renal
[51] = system: CAKI-1 renal
[52] = system: IGROV1 ovarian
[53] = system: SF-268 CNS
[54] = system: K-562 leukemia
[55] = system: MDA-N
[56] = system: LOX IMVI melanoma
[57] = system: A549 NSCLC
[58] = system: SNB-19 CNS
[59] = system: SK-MEL-28 melanoma

COc1cc2c(cc1[N+](=O)[O-])C(=O)C(Br)(Br)CCC2
TGI [1]: 19.4 µM
TGI [2]: 7.31 µM
TGI [3]: 4.42 µM
TGI [4]: 3.67 µM
TGI [5]: > 27.2 µM
TGI [6]: 14.4 µM
TGI [7]: 17 µM
TGI [8]: 9.72 µM
TGI [9]: 3.23 µM
TGI [10]: 28.6 µM
TGI [11]: 15.2 µM
TGI [12]: 2.37 µM
TGI [13]: 4.8 µM
TGI [14]: 10.9 µM
TGI [15]: 21 µM
TGI [16]: 5.33 µM
TGI [17]: 8.59 µM
TGI [18]: 26.7 µM
TGI [19]: 25.8 µM
TGI [20]: 32.5 µM
TGI [21]: 5.16 µM
TGI [22]: 3.77 µM
TGI [23]: 6.25 µM
TGI [24]: 9.41 µM
TGI [25]: 20.1 µM
TGI [26]: 5.34 µM
TGI [27]: 4.99 µM
TGI [28]: 3.35 µM
TGI [29]: 23.2 µM
TGI [30]: 3.99 µM
TGI [31]: 4.96 µM
TGI [32]: 1.87 µM
TGI [33]: 10.7 µM
TGI [34]: 11.2 µM
TGI [35]: 10 µM
TGI [36]: 25.8 µM
TGI [37]: 9.42 µM
TGI [38]: 3.87 µM
TGI [39]: 9.04 µM
TGI [40]: 5.95 µM
TGI [41]: 10.5 µM
TGI [42]: 2.73 µM
TGI [43]: 4.97 µM
TGI [44]: 3.57 µM
TGI [45]: 15.7 µM
TGI [46]: 5.54 µM
TGI [47]: 4.07 µM
TGI [48]: 17 µM
TGI [49]: 4.47 µM
TGI [50]: 4.51 µM
TGI [51]: 7.8 µM
TGI [52]: 2.93 µM
TGI [53]: 15.6 µM
TGI [54]: 6.27 µM
TGI [55]: 9.46 µM
TGI [56]: 1.97 µM
TGI [57]: > 46.6 µM
TGI [58]: 19.5 µM

COc1ccc(-c2c3c(nc4nc(SCC(=O)c5ccc(Br)cc5)nc(N)c24)CCCC3)cc1OC
TGI [1]: > 100 µM
TGI [2]: > 100 µM
TGI [3]: > 100 µM
TGI [4]: > 100 µM
TGI [5]: > 100 µM
TGI [6]: > 100 µM
TGI [7]: > 100 µM
TGI [8]: > 100 µM
TGI [9]: > 100 µM
TGI [11]: > 100 µM
TGI [14]: > 100 µM
TGI [15]: > 100 µM
TGI [16]: > 100 µM
TGI [17]: > 100 µM
TGI [18]: > 100 µM
TGI [19]: > 100 µM
TGI [21]: > 100 µM
TGI [22]: 21.7 µM
TGI [23]: > 100 µM
TGI [24]: > 100 µM
TGI [25]: > 100 µM
TGI [26]: > 100 µM
TGI [27]: > 100 µM
TGI [28]: > 100 µM
TGI [29]: 28.6 µM
TGI [30]: > 100 µM
TGI [31]: > 100 µM
TGI [32]: > 100 µM
TGI [34]: > 100 µM
TGI [35]: > 100 µM
TGI [36]: 28.1 µM
TGI [37]: > 100 µM
TGI [38]: > 100 µM
TGI [39]: > 100 µM
TGI [41]: > 100 µM
TGI [43]: > 100 µM
TGI [44]: > 100 µM
TGI [45]: > 100 µM
TGI [46]: > 100 µM
TGI [47]: > 100 µM
TGI [49]: > 100 µM
TGI [50]: 59.2 µM
TGI [51]: > 100 µM
TGI [52]: > 100 µM
TGI [53]: > 100 µM
TGI [54]: > 100 µM
TGI [55]: > 100 µM
TGI [56]: > 100 µM
TGI [57]: > 100 µM
TGI [59]: > 100 µM
TGI [58]: > 100 µM
